Experimental data from the CheMixHub viscosity set.
± gives the uncertainty stated by the source.

Experiment: xn = mol fraction of the nth substance listed

CCCCNCCCC + CC(C)(C)O
viscosity [mPa·s]
Conditions | 298.15 K | 303.15 K | 308.15 K | 313.15 K | 318.15 K | 323.15 K
101 kPa, x2 = 0.1 | – | 0.8289 ± 0.01 | 0.7649 ± 0.0097 | 0.7079 ± 0.009 | 0.658 ± 0.0083 | 0.6131 ± 0.0078
101 kPa, x2 = 0.2 | – | 0.8953 ± 0.011 | 0.8203 ± 0.01 | 0.7551 ± 0.0095 | 0.6972 ± 0.0088 | 0.6454 ± 0.0081
101 kPa, x2 = 0.3 | – | 0.976 ± 0.012 | 0.8884 ± 0.011 | 0.8111 ± 0.01 | 0.7456 ± 0.0093 | 0.6862 ± 0.0086
101 kPa, x2 = 0.4 | – | 1.082 ± 0.013 | 0.9747 ± 0.012 | 0.8862 ± 0.011 | 0.8031 ± 0.0099 | 0.7331 ± 0.0091
101 kPa, x2 = 0.4999 | – | 1.217 ± 0.015 | 1.085 ± 0.013 | 0.9769 ± 0.012 | 0.8802 ± 0.011 | 0.7968 ± 0.0098
101 kPa, x2 = 0.55 | – | 1.302 ± 0.016 | 1.153 ± 0.014 | 1.027 ± 0.013 | 0.92 ± 0.011 | 0.829 ± 0.01
101 kPa, x2 = 0.6001 | – | 1.391 ± 0.017 | 1.228 ± 0.015 | 1.087 ± 0.013 | 0.9714 ± 0.012 | 0.8676 ± 0.011
101 kPa, x2 = 0.65 | – | 1.513 ± 0.018 | 1.32 ± 0.016 | 1.16 ± 0.014 | 1.027 ± 0.013 | 0.9126 ± 0.011
101 kPa, x2 = 0.7 | – | 1.647 ± 0.02 | 1.423 ± 0.017 | 1.24 ± 0.015 | 1.089 ± 0.013 | 0.9614 ± 0.012
101 kPa, x2 = 0.8001 | – | 2.011 ± 0.025 | 1.696 ± 0.021 | 1.441 ± 0.018 | 1.245 ± 0.015 | 1.08 ± 0.013
101 kPa, x2 = 0.9 | – | 2.559 ± 0.031 | 2.087 ± 0.026 | 1.71 ± 0.021 | 1.45 ± 0.018 | 1.232 ± 0.015
101 kPa, x2 = 0.95 | – | 2.937 ± 0.036 | 2.352 ± 0.029 | 1.91 ± 0.023 | 1.583 ± 0.019 | 1.333 ± 0.016
101.33 kPa, x1 = 0.0672 | 3.548 | – | 2.271 | – | 1.565 | –
101.33 kPa, x1 = 0.0989 | 3.272 | – | 2.133 | – | 1.497 | –
101.33 kPa, x1 = 0.1393 | 2.953 | – | 1.97 | – | 1.409 | –
101.33 kPa, x1 = 0.1939 | 2.586 | – | 1.782 | – | 1.303 | –
101.33 kPa, x1 = 0.2674 | 2.165 | – | 1.559 | – | 1.172 | –
101.33 kPa, x1 = 0.3319 | 1.893 | – | 1.402 | – | 1.077 | –
101.33 kPa, x1 = 0.405 | 1.643 | – | 1.25 | – | 0.984 | –
101.33 kPa, x1 = 0.4915 | 1.419 | – | 1.109 | – | 0.895 | –
101.33 kPa, x1 = 0.5791 | 1.248 | – | 0.999 | – | 0.816 | –
101.33 kPa, x1 = 0.6466 | 1.143 | – | 0.93 | – | 0.769 | –
101.33 kPa, x1 = 0.6907 | 1.086 | – | 0.89 | – | 0.745 | –
101.33 kPa, x1 = 0.776 | 0.994 | – | 0.825 | – | 0.7 | –
101.33 kPa, x1 = 0.8387 | 0.932 | – | 0.783 | – | 0.671 | –
101.33 kPa, x1 = 0.8867 | 0.889 | – | 0.752 | – | 0.654 | –
101.33 kPa, x1 = 0.9129 | 0.872 | – | 0.742 | – | 0.642 | –
101.33 kPa, x1 = 0.9471 | 0.845 | – | 0.724 | – | 0.629 | –
